This passage reports IC50 results from patent US5652237A, “2-substituted-4H-3, 1-benzoxazin-4-ones and benzthiazin-4-ones as inhibitors of complement C1r protease for the treatment of inflammatory processes” (Warner-Lambert Company, priority 1995, dated 1997).

The target of assay [1] is T1, human C1 r (Homo sapiens, UniProt P00736).
T1 construct: purchased Enzyme Research Labs (South Bend, Ind.)
T1 sequence (P00736 464-705 limits assumed): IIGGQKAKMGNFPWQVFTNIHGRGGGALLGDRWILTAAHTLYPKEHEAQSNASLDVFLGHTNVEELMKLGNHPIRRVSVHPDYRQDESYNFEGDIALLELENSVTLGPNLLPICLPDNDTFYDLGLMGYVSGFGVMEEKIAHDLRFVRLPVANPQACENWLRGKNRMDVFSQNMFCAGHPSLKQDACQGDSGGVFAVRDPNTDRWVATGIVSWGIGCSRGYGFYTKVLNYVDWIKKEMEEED
T1 sequence (P00736 18-463 partner limits assumed): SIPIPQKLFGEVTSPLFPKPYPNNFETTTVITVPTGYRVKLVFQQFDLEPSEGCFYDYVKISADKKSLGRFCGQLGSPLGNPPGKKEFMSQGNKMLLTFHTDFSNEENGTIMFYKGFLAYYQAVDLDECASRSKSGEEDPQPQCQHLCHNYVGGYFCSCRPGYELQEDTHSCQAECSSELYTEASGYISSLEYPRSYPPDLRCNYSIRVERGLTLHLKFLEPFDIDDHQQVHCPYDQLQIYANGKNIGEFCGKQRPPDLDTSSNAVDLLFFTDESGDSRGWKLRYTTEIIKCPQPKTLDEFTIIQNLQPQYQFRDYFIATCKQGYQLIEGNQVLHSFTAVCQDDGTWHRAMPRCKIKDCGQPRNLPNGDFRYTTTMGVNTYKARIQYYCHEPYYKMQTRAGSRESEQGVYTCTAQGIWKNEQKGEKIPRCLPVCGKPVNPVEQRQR
The assay can be described thus: Assay of C1r Enzyme Activity (Assay 1), thioester substrate z-Gly-Arg-S-Bzl with DTNB. The class given is biochemical. As for the experimental part:
Assay of C1 r Enzyme Activity Purified human C1 r was obtained commercially from Enzyme Research Labs (South Bend, Ind.). The enzyme is stored frozen at -70° C. at a stock concentration of about 1 mg/mL of protein until the enzyme is needed. […] The thioester substrate, z-Gly-Arg-S-Bzl, for C1 r assays (McRae, et al., 1981) is obtained commercially from Enzyme System Products (Livermore, Calif.). All other reagents were obtained from Sigma Chemical Co. (St. Louis, Mo.). The procedure for assaying the inhibition of C1 r enzyme activity is as follows. A 5 mM stock solution of z-Gly-Arg-S-Bzl is made in dimethylsulfoxide (DMSO) and stored at room temperature until needed. The stock substrate solution is diluted 3 parts stock substrate solution to 7 parts distilled water to make a 1.5 mM working substrate solution. The working substrate solution is made just before it is needed. A fresh solution of 20 μg/mL of C1 r enzyme is made in 10 mM Tris buffer, pH 7.4. The enzyme solution can be stored on ice for up to an hour. […] Compounds at concentrations ranging from 1 mM to 0.010 mM are dissolved in DMSO and a 10 μL aliquot of each concentration is deposited in a well of a 96-well microtiter plate. Fifty microliters of the working substrate solution and 50 μL of DTNB solution are then dispensed in the wells of the microtiter plate, followed by the immediate addition of 50 μL of the C1 r enzyme solution to start the assay. The assay produces a yellow color that is read in the kinetic mode using a Molecular Devices Thermomax microplate reader set to a wavelength of 405 nm. The assay background is followed by monitoring wells that contain substrate, buffer, and DTNB solutions but no enzyme. All assays are performed in triplicate at each inhibitor concentration tested. Values for each inhibitor concentration are reported as optical density (OD)/minute.

Assay [2] has as its target T2, human complement protease C1 r (Homo sapiens, UniProt P00736).
T2 sequence (P00736 464-705 limits assumed): T1 sequence (P00736 464-705 limits assumed)
T2 sequence (P00736 18-463 partner limits assumed): T1 sequence (P00736 18-463 partner limits assumed)
Description: Assay 2, inhibition of human complement protease C1r with substrate ZVGR-pNA. Particulars: Table 2; substrate ZVGR-pNA 1.2 mM, pH 7.4, 25° C., 10 minutes preincubation; read-out: Inhibition of Clr ZVGRpNA - Assay 2. The class given is biochemical. As for the experimental part:
The assay was performed in a 96-well format. Fifty microliters of water were added to each well followed by 2.5 μL of an inhibitory agent, usually in dimethyl foramide (DMF) (or water). A C1 r solution (100 μL) containing 0.1 μg of activated human C1 r and 100 mM Tris-HCl (pH 7.4 at 25° C.) was then added. The mixture was incubated for 10 minutes at 25° C. The reaction was then started by the addition of 100 μL of a 3 mM (Cbz-Val-Gly-Arg-p-nitroanilide) ZVGR-pNA solution. The final reaction mixture (250 μL) contained 40 mM of Tris-HCl, 1.2 mM of ZVGR-pNA, 0.1 μg C1 R and certain concentration of an inhibitor. The production of p-nitroaniline was monitored at 405 nm every 15 minutes up to 90 minutes (at 25° C.). The velocity was linear for at least 60 minutes.

Setting [3] is: Table 1 and text, pH 7.4-7.5, read-out: Inhibition of Clr Assay 1 (IC50).
Setting [4] is: Table 2, pH 7.4-7.5, read-out: Inhibition of Clr Assay 1 IC50.

Like-named read-outs stand apart in the source and are kept apart here.

With `CN(C(=O)c1ccccc1I)c1nc2ccc(Cl)cc2c(=O)o1` [Example 41, N-(6-Chloro-4-oxo-4H-benzo[d][1,3]oxazin-2-yl)-2-iodo-N-methyl-benzamide], the IC50 in assay [1] (setting [3]) was more than 66 µM.

For the molecule `CN(C(=O)c1ccccc1I)c1nc2cc(Cl)ccc2c(=O)o1` [Example 42, N-(7-Chloro-4-oxo-4H-benzo[d][1,3]oxazin-2-yl)-2-iodo-N-methyl-benzamide], in assay [1] (setting [3]), the IC50 amounted to 18 µM.

Regarding `COc1ccc2nc(N(C)C(=O)c3ccccc3I)oc(=O)c2c1` [Example 43, 2-Iodo-N-(6-methoxy-4-oxo-4H-benzo[d][1,3]oxazin-2-yl)-N-methyl-benzamide], the IC50 in assay [1] (setting [3]) stood at 48 µM.

Regarding `COc1ccc2c(=O)oc(N(C)C(=O)c3ccccc3I)nc2c1` [Example 44, 2-Iodo-N-(7-methoxy-4-oxo-4H-benzo[d][1,3]oxazin-2-yl)-N-methyl-benzamide], in assay [1] (setting [3]), the IC50 was more than 66 µM.

In the case of `Cc1ccc2c(=O)oc(Nc3ccccc3Cl)nc2c1` [Example 45, 2-(2-Chloro-phenylamino)-7-methyl-benzo[d][1,3]oxazin-4-one], the IC50 in assay [1] (setting [3]) was found to be 1.4 µM.

As for `O=c1oc(Nc2ccccc2I)nc2cc(F)c(F)cc12` [Example 46, 6,7-Difluoro-2-(2-iodo-phenylamino)-benzo[d][1,3]oxazin-4-one], the IC50 in assay [1] (setting [3]) was found to be 7 µM.

For the molecule `O=c1oc(Nc2ccccc2Cl)nc2cc(Cl)c(Cl)cc12` [Example 48, 6,7-Dichloro-2-(2-chloro-phenylamino)-benzo[d][1,3]oxazin-4-one], the IC50 in assay [1] (setting [3]) was 2 µM.

For the molecule `O=c1oc(Nc2c(Cl)cccc2Cl)nc2cc(Cl)ccc12` [Example 50, 7-Chloro-2-(2,6-dichloro-phenylamino)-benzo[d][1,3]oxazin-4-one], the IC50 in assay [1] (setting [3]) worked out at 0.4 µM.

With `Cc1ccccc1Nc1nc2ccccc2c(=O)o1` [Example 51, 2-o-Tolylamino-benzo[d][1,3]oxazin-4-one], the IC50 in assay [1] (setting [3]) was 31 µM.

For `O=c1oc(Nc2ccccc2Cl)nc2cc([N+](=O)[O-])ccc12` [Example 52, 2-(2-Chloro-phenylamino)-7-nitro-benzo[d][1,3]oxazin-4-one], the IC50 in assay [1] (setting [3]) was determined as 1.4 µM.

`O=c1oc(Nc2c(Cl)cccc2Cl)nc2ccccc12` [Example 53, 2-(2,6-Dichloro-phenylamino)-benzo[d][1,3]oxazin-4-one]: the IC50 in assay [1] (setting [3]) was found to be 1.5 µM.

Turning to `CN(C(=O)c1ccccc1I)c1nc2cccc(Cl)c2c(=O)o1` [Example 54, N-(5-Chloro-4-oxo-4H-benzo[d][1,3]oxazin-2-yl)-2-iodo-N-methyl-benzamide], in assay [1] (setting [3]), the IC50 worked out at 36 µM.

Take `Cc1ccc2c(=O)oc(N(C)C(=O)c3ccccc3I)nc2c1` [Example 55, 2-Iodo-N-methyl-N-(7-methyl-4-oxo-4H-benzo[d][1,3]oxazin-2-yl)-benzamide]: the IC50 in assay [1] (setting [3]) stood at 2.8 µM.

Take `CN(C(=O)c1ccccc1I)c1nc2cc(Cl)c(Cl)cc2c(=O)o1` [Example 56, N-(6,7-Dichloro-4-oxo-4H-benzo[d][1,3]oxazin-2-yl)-2-iodo-N-methyl-benzamide]: the IC50 in assay [1] (setting [3]) was 8 µM.

Take `CN(C(=O)c1cccc2ccccc12)c1nc2ccccc2c(=O)o1` [Example 57, Naphthalene-1-carboxylic acid methyl-(4-oxo-4H-benzo[d][1,3]oxazin-2-yl)-amide]: in assay [1] (setting [3]), the IC50 stood at 23.4 µM.

`CCCCc1ccc(C(=O)N(C)c2nc3ccccc3c(=O)o2)cc1` [Example 58, 4-Butyl-N-methyl-N-(4-oxo-4H-benzo[d][1,3]oxazin-2-yl)-benzamide]: the IC50 in assay [1] (setting [3]) came to 16 µM.

Turning to `COc1ccc(C(=O)N(C)c2nc3ccccc3c(=O)o2)cc1` [Example 59, 4-Methoxy-N-methyl-N-(4-oxo-4H-benzo[d][1,3]oxazin-2-yl)-benzamide], in assay [1] (setting [3]), the IC50 turned out to be 19 µM.

Regarding `CN(C(=O)c1ccco1)c1nc2ccccc2c(=O)o1` [Example 61, Furan-2-carboxylic acid methyl-(4-oxo-4H-benzo[d][1,3]oxazin-2-yl)-amide], the IC50 in assay [1] (setting [3]) turned out to be 10.1 µM.

For `CN(C(=O)c1cccnc1)c1nc2ccccc2c(=O)o1` [Example 62, N-Methyl-N-(4-oxo-4H-benzo[d][1,3]oxazin-2-yl)nicotinamide], the IC50 in assay [1] (setting [3]) was found to be 40 µM.

As for `CCCCCCC(=O)N(C)c1nc2ccccc2c(=O)o1` [Example 64, Heptanoic acid methyl-(4-oxo-4H-benzo[d][1,3]oxazin-2-yl)-amide], the IC50 in assay [2] turned out to be 0.0478 µM; in assay [1] (setting [4]), 0.68 µM.

As for `CN(C(=O)C1CCCCC1)c1nc2ccccc2c(=O)o1` [Example 65, Cyclohexanecarboxylic acid methyl-(4-oxo-4H-benzo[d][1,3]oxazin-2-yl)-amide], the results for the IC50 in assay [2] and in assay [1] (setting [4]) were 0.0078 µM and 1.2 µM, respectively.

On to `CCCCCCC(=O)N(CC)c1nc2ccccc2c(=O)o1` [Example 66, Heptanoic acid ethyl-(4-oxo-4H-benzo[d][1,3]oxazin-2-yl)-amide], for which the IC50 in assay [2] was 0.029 µM; in assay [1] (setting [4]), 6.32 µM.

`CCCCCCCCCCC(=O)N(C)c1nc2ccccc2c(=O)o1` [Example 67, Undecanoic acid methyl-(4-oxo-4H-benzo[d][1,3]oxazin-2-yl)-amide]: the IC50 in assay [2] was 0.5 µM; in assay [1] (setting [4]), more than 62.5 µM.

In the case of `CN(C(=O)CCc1ccccc1)c1nc2ccccc2c(=O)o1` [Example 68, N-Methyl-N-(4-oxo-4H-benzo[d][1,3]oxazin-2-yl)-3-phenyl-propionamide], the IC50 in assay [2] worked out at 0.103 µM; in assay [1] (setting [4]), 1.3 µM.

In the case of `CC(=O)N(C)c1nc2ccccc2c(=O)o1` [Example 69, N-Methyl-N-(4-oxo-4H-benzo[d][1,3]oxazin-2-yl)acetamide], the values for the IC50 in assay [2] and in assay [1] (setting [4]) were 0.399 µM and 30 µM, respectively.

Turning to `N=C(N)c1ccc2cc(OC(=O)c3ccc(N=C(N)N)cc3)ccc2c1` [FUT-175, reference compound], the IC50 in assay [1] (setting [3]) was 12 µM.
